Measurements published in patent US20250144067A1, “PERSONALIZED STARVATION THERAPY FOR CANCER” (Faeth Therapeutics, Inc., priority 2021, published 2025).
Counter-ions that a name gives are not always drawn. Like-named read-outs stand apart in the source and are kept apart here.

What was measured:
[1] = test system: NCI-H292 lung cancer cells; test: FDA drug screening, complete media vs cholesterol-free media with simvastatin (TABLE 2); assay type: cell-based, human
[2] = test system: NCI-H292 lung cancer cells; test: FDA drug screening, complete media vs cholesterol-free media without statin (TABLE 1); assay type: cell-based, human
[3] = complete media vs cholesterol-free media + simvastatin (0.04 μM), >0 enhanced anti-cancer activity, about 0 neutral, <0 antagonist
[4] = Complete minus Cholesterol-free, >0 enhanced anti-cancer activity, about 0 neutral, <0 antagonist
[5] = NCI-H292 cells, cholesterol-free media without statin
[6] = NCI-H292 cells, FDA drug library screen, cholesterol-free media with simvastatin 0.04 μM
[7] = NCI-H292 cells, FDA drug library screen, complete media
[8] = NCI-H292 cells, cholesterol-free media with simvastatin 0.04 μM, FDA drug library screen (TABLE 2)
[9] = NCI-H292 cells, complete media, FDA drug library screen (TABLE 2)
[10] = complete media minus cholesterol-free media + simvastatin (0.04 μM), >0 enhanced anti-cancer activity, about 0 neutral, <0 antagonist
[11] = NCI-H292 cells, FDA library drug in cholesterol-free media with simvastatin 0.04 μM
[12] = NCI-H292 cells, FDA library drug in complete media
[13] = NCI-H292 cells, cholesterol-free media without statin, FDA drug library screen
[14] = NCI-H292 cells, complete media, FDA drug library screen
[15] = complete vs cholesterol-free media, >0 enhanced anti-cancer activity, about 0 neutral, <0 antagonist

NC(=O)c1ccn(-c2cnc(NC[C@]3(c4ncccc4F)C[C@H](F)C3)nc2)c1 [Reldesemtiv]
Cholesterol-free media + simvastatin (0.04 μM) ([1]; NCI-H292 cells, drug in cholesterol-free media with simvastatin 0.04 μM): 1.122 | Complete Media ([1]; NCI-H292 cells, drug in complete media): 0.9357 | Difference [1, 3]: −0.19 | Difference [2, 4]: −0.25 | Cholesterol-free [2, 5]: 1.096 | Complete ([2]; NCI-H292 cells, complete media): 0.8441

CCOc1nc2cccc(C(=O)OCc3oc(=O)oc3C)c2n1Cc1ccc(-c2ccccc2-c2noc(=O)[nH]2)cc1 [Azilsartan medoxomil]
Cholesterol-free media + simvastatin (0.04 μM) [1, 6]: 1.394 | Complete Media [1, 7]: 1.269 | Difference [1, 3]: −0.12 | Difference ([2]; Complete minus Cholesterol-free, greater than 0 enhanced anti-cancer activity, about 0 neutral, below 0 antagonists): −0.49 | Cholesterol-free ([2]; NCI-H292 cells in cholesterol-free media without statin): 1.119 | Complete ([2]; NCI-H292 cells in complete media): 0.6328

Fludarabine (phosphate)
Cholesterol-free media + simvastatin (0.04 μM) ([1]; NCI-H292 cells, cholesterol-free media with simvastatin 0.04 μM, […]): 1.095 | Complete Media ([1]; NCI-H292 cells, complete media, […]): 1.138 | Difference ([1]; complete media minus cholesterol-free media + simvastatin, […]): 0.04 | Difference ([2]; Complete minus Cholesterol-free, […]): −0.10 | Complete [2, 7]: 0.9769

CC(=O)N[C@@H](CC(C)C)C(=O)O [Acetylleucine]
Cholesterol-free media + simvastatin (0.04 μM) [1, 8]: 0.8948 | Complete Media [1, 9]: 0.8714 | Difference [1, 10]: −0.02 | Difference ([2]; Complete minus Cholesterol-free, greater than 0 enhanced anti-cancer activity, about 0 neutral, below 0 antagonist): −0.09 | Cholesterol-free ([2]; NCI-H292 cells, FDA drug library screen, cholesterol-free media without statin): 0.9104 | Complete [2, 7]: 0.8206

CCN1CCN(Cc2ccc(Nc3ncc(F)c(-c4cc(F)c5nc(C)n(C(C)C)c5c4)n3)nc2)CC1 [Abemaciclib]
Cholesterol-free media + simvastatin (0.04 μM) [1, 11]: 1.011 | Complete Media [1, 12]: 0.6686 | Difference [1, 3]: −0.34 | Cholesterol-free [2, 13]: 0.7212 | Complete [2, 14]: 0.8498 | Difference [2, 15]: 0.13

CC(C)Cn1cnc2c(N)nc3ccccc3c21 [Imiquimod (hydrochloride)]
Cholesterol-free media + simvastatin (0.04 μM) [1]: 1.323 | Complete Media [1]: 1.16 | Difference [1]: −0.16 | Cholesterol-free [2]: 0.8815 | Complete [2]: 1.16 | Difference [2]: 0.28

CCN(CC)C(=O)C1(c2ccccc2)CC1CN (centres unmarked) [Milnacipran (hydrochloride)]
Cholesterol-free media + simvastatin (0.04 μM) [1, 8]: 1.626 | Complete Media [1, 9]: 1.564 | Difference ([1]; complete media minus cholesterol-free media + simvastatin (0.04 μM), […]): −0.06 | Cholesterol-free [2, 5]: 1.545 | Complete ([2]; NCI-H292 cells, complete media): 1.09 | Difference ([2]; complete vs cholesterol-free media, […]): −0.45

CN(C)[C@@H](CCOc1cccc2ccccc12)c1ccccc1 [Dapoxetine (hydrochloride)]
Cholesterol-free media + simvastatin (0.04 μM) [1, 8]: 1.079 | Complete Media [1, 9]: 1.031 | Difference [1, 10]: −0.05 | Cholesterol-free [2, 5]: 1.092 | Complete ([2]; NCI-H292 cells, complete media): 0.7794 | Difference ([2]; complete vs cholesterol-free media, greater than 0 enhanced anti-cancer activity, about 0 neutral, below 0 antagonists): −0.31

C=C1C[C@@H]2[C@H](CC[C@]3(C)C(=O)CC[C@@H]23)[C@@]2(C)C=CC(=O)C=C12 [Exemestane]
Cholesterol-free media + simvastatin (0.04 μM) [1, 11]: 1.215 | Complete Media [1, 12]: 0.9053 | Difference [1, 3]: −0.31 | Difference [2, 4]: −0.01 | Cholesterol-free [2, 13]: 1.056 | Complete [2, 14]: 1.048

COc1cc2nc(N3CCN(C(=O)C4CCCO4)CC3)nc(N)c2cc1OC (centres unmarked) [Terazosin (hydrochloride dihydrate)]
Cholesterol-free media + simvastatin (0.04 μM) [1, 8]: 1.029 | Complete Media [1, 9]: 0.9806 | Difference [1, 10]: −0.05 | Difference [2, 4]: −0.06 | Cholesterol-free [2, 13]: 0.8804 | Complete [2, 14]: 0.821

CN1CCC(OC(c2ccccc2)c2ccccc2)CC1 [Diphenylpyraline (hydrochloride)]
Cholesterol-free media + simvastatin (0.04 μM) [1, 6]: 0.641 | Complete Media [1, 7]: 1.367 | Difference ([1]; complete media minus cholesterol-free media + simvastatin, >0 enhanced anti-cancer activity, about 0 neutral, <0 antagonist): 0.73 | Difference [2, 4]: −0.22 | Cholesterol-free [2, 5]: 0.9623 | Complete ([2]; NCI-H292 cells, complete media): 0.7446

CC(=O)N(CC(O)CN(C(C)=O)c1c(I)c(C(=O)NCC(O)CO)c(I)c(C(=O)NCC(O)CO)c1I)c1c(I)c(C(=O)NCC(O)CO)c(I)c(C(=O)NCC(O)CO)c1I (centres unmarked) [Iodixanol]
Cholesterol-free media + simvastatin (0.04 μM) [1, 8]: 1.197 | Complete Media [1, 9]: 1.164 | Difference [1, 10]: −0.03 | Cholesterol-free [2, 13]: 0.9782 | Complete [2, 14]: 1.054 | Difference [2, 15]: 0.08

COc1ccc(C(=O)N2CCCC2=O)cc1 [Aniracetam]
Cholesterol-free media + simvastatin (0.04 μM) [1, 8]: 1.041 | Complete Media [1, 9]: 1.006 | Difference [1, 10]: −0.04 | Cholesterol-free [2, 13]: 0.69 | Complete [2, 14]: 1.062 | Difference [2, 15]: 0.37
